Reference: US9856254B2, “Alkoxy substituted imidazoquinolines” (3M INNOVATIVE PROPERTIES COMPANY, priority 2003, dated 2018)

melting point	SMILES
183.5 to 184.5 °C	CCCn1c(CCO)nc2c(N)nc3cc(OCCCNC(=O)c4cccnc4)ccc3c21 [Example 396, N-(3-{[4-Amino-2-(2-hydroxyethyl)-1-propyl-1H-imidazo[4,5-c]quinolin-7-yl]oxy}propyl)nicotinamide]
134.5 to 136 °C	CCOCc1nc2c(N)nc3cc(OCCCN4CCCC4=O)ccc3c2n1CCCCNC(=O)OC(C)(C)C [Example 397, tert-Butyl 4-{4-amino-2-(ethoxymethyl)-7-[3-(2-oxopyrrolidin-1-yl)propoxy]-1H-imidazo[4,5-c]quinolin-1-yl}butylcarbamate]
98 to 101 °C	CCOCc1nc2c(N)nc3cc(OCCCN4CCCC4=O)ccc3c2n1CCCCNC(=O)NC(C)C [Example 399, N-(4-{4-Amino-2-(ethoxymethyl)-7-[3-(2-oxopyrrolidin-1-yl)propoxy]-1H-imidazo[4,5-c]quinolin-1-yl}butyl)-N′-isopropylurea]
157 °C	CCOCc1nc2c(N)nc3cc(OCCCN4CCCC4=O)ccc3c2n1CCCCNS(C)(=O)=O [Example 400, N-(4-{4-Amino-2-(ethoxymethyl)-7-[3-(2-oxopyrrolidin-1-yl)propoxy]-1H-imidazo[4,5-c]quinolin-1-yl}butyl)methanesulfonamide]
195.5 to 197 °C	CCOCc1nc2c(N)nc3cc(OC4CCOC4)ccc3c2n1CCCCN1CCCS1(=O)=O (stereo not shown) [Example 401, 1-[4-(1,1-Dioxidoisothiazolidin-2-yl)butyl]-2-(ethoxymethyl)-7-(tetrahydrofuran-3-yloxy)-1H-imidazo[4,5-c]quinolin-4-amine]
142 to 144 °C	CCOCc1nc2c(N)nc3cc(OCCCN4CCCC4=O)ccc3c2n1CCCCN1CCCS1(=O)=O [Example 402, 1-(3-{[4-Amino-1-[4-(1,1-dioxidoisothiazolidin-2-yl)butyl]-2-(ethoxymethyl)-1H-imidazo[4,5-c]quinolin-7-yl]oxy}propyl)pyrrolidin-2-one]
213.7 to 215.7 °C	Cc1nc2c(N)nc3cc(OCCC4CCN(C(=O)NC5CCCCC5)CC4)ccc3c2n1CC(C)C [Example 403, 4-{2-[(4-Amino-1-isobutyl-2-methyl-1H-imidazo[4,5-c]quinolin-7-yl)oxy]ethyl}-N-cyclohexylpiperidine-1-carboxamide]
192 to 197 °C (dec.)	CCCn1c(COCC)nc2c(N)nc3ccc(OCC(=O)N4CCN(C(=O)OC(C)(C)C)CC4)cc3c21 [Example 404, tert-Butyl 4-({[4-amino-2-(ethoxymethyl)-1-propyl-1H-imidazo[4,5-c]quinolin-8-yl]oxy}acetyl)piperazine-1-carboxylate]
188.5 to 190 °C	CCCn1c(COCC)nc2c(N)nc3ccc(OCCCN4CCCC4=O)cc3c21 [Example 405, 1-(3-{[4-Amino-2-(ethoxymethyl)-1-propyl-1H-imidazo[4,5-c]quinolin-8-yl]oxy}propyl)pyrrolidin-2-one]
173 to 175 °C	CCCn1c(COCC)nc2c(N)nc3ccc(OC4CCOC4)cc3c21 (stereo not shown) [Example 406, 2-(Ethoxymethyl)-1-propyl-8-(tetrahydrofuran-3-yloxy)-1H-imidazo[4,5-c]quinolin-4-amine]
136 to 138 °C	CCCn1c(COCC)nc2c(N)nc3ccc(OCCCCCCNC(=O)C(C)C)cc3c21 [Example 407, N-(6-{[4-Amino-2-(ethoxymethyl)-1-propyl-1H-imidazo[4,5-c]quinolin-8-yl]oxy}hexyl)-2-methylpropanamide]
167 to 169 °C	CCCn1c(COCC)nc2c(N)nc3ccc(OCCCCCCNC(=O)NC(C)C)cc3c21 [Example 408, N-(6-{[4-Amino-2-(ethoxymethyl)-1-propyl-1H-imidazo[4,5-c]quinolin-8-yl]oxy}hexyl)-N′-isopropylurea]
164 to 167 °C	CCCn1c(COCC)nc2c(N)nc3ccc(OCCCCCCNS(C)(=O)=O)cc3c21 [Example 409, N-(6-{[4-Amino-2-(ethoxymethyl)-1-propyl-1H-imidazo[4,5-c]quinolin-8-yl]oxy}hexyl)methanesulfonamide]
179.5 to 181 °C	CCCn1c(COCC)nc2c(N)nc3ccc(OC4CCN(C(=O)OC(C)(C)C)CC4)cc3c21 [Example 410, tert-Butyl 4-{[4-amino-2-(ethoxymethyl)-1-propyl-1H-imidazo[4,5-c]quinolin-8-yl]oxy}piperidine-1-carboxylate]
176 to 178 °C	CCCn1c(COCC)nc2c(N)nc3ccc(OC4CCNCC4)cc3c21 [Example 411, 2-(Ethoxymethyl)-8-(piperidin-4-yloxy)-1-propyl-1H-imidazo[4,5-c]quinolin-4-amine]
236.5 to 239 °C	CCCn1c(COCC)nc2c(N)nc3ccc(OC4CCN(C(=O)NC(C)C)CC4)cc3c21 [Example 412, 4-{[4-Amino-2-(ethoxymethyl)-1-propyl-1H-imidazo[4,5-c]quinolin-8-yl]oxy}-N-isopropylpiperidine-1-carboxamide]
240 to 243.5 °C	CCCn1c(COCC)nc2c(N)nc3ccc(OC4CCN(S(C)(=O)=O)CC4)cc3c21 [Example 413, 2-(Ethoxymethyl)-8-{[1-(methylsulfonyl)piperidin-4-yl]oxy}-1-propyl-1H-imidazo[4,5-c]quinolin-4-amine]

melting point	SMILES
177 to 179 °C	CCCn1c(COCC)nc2c(N)nc3ccc(OC4CCN(C(=O)C(C)C)CC4)cc3c21 [Example 414, 2-(Ethoxymethyl)-8-[(1-isobutyrylpiperidin-4-yl)oxy]-1-propyl-1H-imidazo[4,5-c]quinolin-4-amine]
194 to 195 °C	CCCn1c(COCC)nc2c(N)nc3cc(OC4CCN(C(=O)OC(C)(C)C)CC4)ccc3c21 [Example 415, tert-Butyl 4-{[4-amino-2-(ethoxymethyl)-1-propyl-1H-imidazo[4,5-c]quinolin-7-yl]oxy}piperidine-1-carboxylate]
202 to 204 °C	CCCn1c(COCC)nc2c(N)nc3cc(OC4CCNCC4)ccc3c21 [Example 416, 2-(Ethoxymethyl)-7-(piperidin-4-yloxy)-1-propyl-1H-imidazo[4,5-c]quinolin-4-amine]
163 to 164.5 °C	CCCn1c(COCC)nc2c(N)nc3cc(OC4CCN(C(=O)NC(C)C)CC4)ccc3c21 [Example 417, 4-{[4-Amino-2-(ethoxymethyl)-1-propyl-1H-imidazo[4,5-c]quinolin-7-yl]oxy}-N-isopropylpiperidine-1-carboxamide]
200 to 201 °C	CCc1nc2c(N)nc3cc(OCCNC(=O)OC(C)(C)C)ccc3c2n1CC1CCOCC1 [Example 551, tert-Butyl 2-{[4-amino-2-ethyl-1-(tetrahydro-2H-pyran-4-ylmethyl)-1H-imidazo[4,5-c]quinolin-7-yl]oxy}ethylcarbamate]
245 to 247 °C	CCc1nc2c(N)nc3cc(OCC(=O)N4CCOCC4)ccc3c2n1CC1CCOCC1 [Example 553, 2-Ethyl-7-(2-morpholin-4-yl-2-oxoethoxy)-1-(tetrahydro-2H-pyran-4-ylmethyl)-1H-imidazo[4,5-c]quinolin-4-amine]
193 to 196 °C	CCCn1c(COC)nc2c(N)nc3ccc(OCCCN4CCOCC4)cc3c21 [Example 554, 2-Methoxymethyl-8-(3-morpholin-4-ylpropoxy)-1-propyl-1H-imidazo[4,5-c]quinolin-4-amine]
173 to 174 °C	CCCn1c(COC)nc2c(N)nc3ccc(OCCCOC(=O)N4CCOCC4)cc3c21 [Example 555, 3-{[4-Amino-2-(methoxymethyl)-1-propyl-1H-imidazo[4,5-c]quinolin-8-yl]oxy}propyl morpholine-4-carboxylate]
214 to 216 °C	CCCn1c(COC)nc2c(N)nc3ccc(OCC(=O)N4CCSCC4)cc3c21 [Example 556, 2-(Methoxymethyl)-8-(2-oxo-2-thiomorpholin-4-ylethoxy)-1-propyl-1H-imidazo[4,5-c]quinolin-4-amine]
201 to 204 °C	CCCn1c(COC)nc2c(N)nc3ccc(OCC(=O)N4CCOCC4)cc3c21 [Example 557, 2-(Methoxymethyl)-8-(2-morpholin-4-yl-2-oxoethoxy)-1-propyl-1H-imidazo[4,5-c]quinolin-4-amine]
194 to 196 °C	CCCn1c(COC)nc2c(N)nc3ccc(OCC4CCCN(C)C4)cc3c21 (stereo not shown) [Example 558, 2-Methoxymethyl-8-(1-methylpiperidin-3-ylmethoxy)-1-propyl-1H-imidazo[4,5-c]quinolin-4-amine]
160 to 162 °C	CCCn1c(COC)nc2c(N)nc3ccc(OCCN4CCCCC4)cc3c21 [Example 559, 2-Methoxymethyl-8-(2-piperidin-1-ylethoxy)-1-propyl-1H-imidazo[4,5-c]quinolin-4-amine]
178 to 179.5 °C	CCCn1c(COCC)nc2c(N)nc3cc(OC4CCN(C(C)=O)CC4)ccc3c21 [Example 560, 7-[(1-Acetylpiperidin-4-yl)oxy]-2-(ethoxymethyl)-1-propyl-1H-imidazo[4,5-c]quinolin-4-amine]
215 to 217 °C	CCCn1c(COCC)nc2c(N)nc3cc(OC4CCN(S(C)(=O)=O)CC4)ccc3c21 [Example 561, 2-(Ethoxymethyl)-7-{[1-(methylsulfonyl)piperidin-4-yl]oxy}-1-propyl-1H-imidazo[4,5-c]quinolin-4-amine]
214 to 215 °C (dec.)	CCOCc1nc2c(N)nc3cc(OC4CCN(C(=O)OC(C)(C)C)CC4)ccc3c2n1CC(C)(C)O [Example 563, tert-Butyl 4-{[4-amino-2-(ethoxymethyl)-1-(2-hydroxy-2-methylpropyl)-1H-imidazo[4,5-c]quinolin-7-yl]oxy}piperidine-1-carboxylate]
131 to 136 °C	COCCc1nc2c(N)nc3cc(OCC4OCCO4)ccc3c2n1CC(C)(C)O [Example 564, 1-[4-Amino-7-(1,3-dioxolan-2-ylmethoxy)-2-(2-methoxyethyl)-1H-imidazo[4,5-c]quinolin-1-yl]-2-methylpropan-2-ol]
223 to 225 °C	CCCn1c(COCC)nc2c(N)nc3ccc(OCC(=O)N4CCS(=O)(=O)CC4)cc3c21 [Example 565, 8-[2-(1,1-Dioxidothiomorpholin-4-yl)-2-oxoethoxy]-2-(ethoxymethyl)-1-propyl-1H-imidazo[4,5-c]quinolin-4-amine]
